Assay results: US10344019B2 (priority 2010, dated 2019)
Like-named read-outs stand apart in the source and are kept apart here.

How the values were obtained:
Format in all cases: cell-based
[1] = system: HCV 2a Rluc cells (NS5A chimeric genotype 2a JFH-1 replicon with genotype 2a J6 strain NS5A gene, M31 present); assay: HCV replicon reporter assay, genotype 2a J6 (M31 present); details: Hepatitis C virus, read-out: 2a J6
Experimental: Evaluation of cell-based anti-HCV activity: Antiviral potency (EC50) was determined using a Renilla luciferase (RLuc)-based HCV replicon reporter assay. To perform the assay for genotype 1 and 2a JFH-1, HCV 1b RLuc cells (harboring a dicistronic genotype 1b Con1 replicon that encodes a RLuc reporter), or HCV 1a RLuc cells (harboring a dicistronic genotype 1a H77 replicon that encodes a RLuc reporter), or HCV 2a JFH-1 Rluc cells (harboring a dicistronic genotype 2a JFH-1 replicon that encodes a RLuc reporter) were dispensed into 384-well plates. To perform the assay for genotype 2a (with M31 present) or 2b, HCV 2a Rluc or 2b Rluc cells (both with M31 present) harboring a dicistronic NS5A chimeric genotype 2a JFH-1 replicon that encodes a RLuc reporter and either genotype 2a J6 strain NS5A gene or genotype 2b MD2b-1 NS5A gene (based on Los Alamos HCV database isolates, both with M31 present) respectively, were dispensed into 384-well plates. To perform the assay for genotype 3 and 4, HCV 3a RLuc or 4a Rluc cells harboring a dicistronic NS5A chimeric genotype 1b Con1 replicon that encodes a RLuc reporter and either a consensus genotype 3a NS5A gene or genotype 4a NS5A gene (based on Los Alamos HCV database isolates) respectively, were dispensed into 384-well plates. Compounds were re-suspended in DMSO at a concentration of 10 mM and serially diluted in DMSO either manually or using an automated pipeting instrument. Serially diluted compounds were mixed with cell culture media and added to the seeded cells. […] 72 hours later, cells were lysed and Renilla luciferase activity quantified as recommended by the manufacturer (Promega-Madison, Wis.). Non-linear regression was performed to calculate EC50 values.

[2] = system: HCV 4a Rluc cells (NS5A chimeric genotype 1b Con1 replicon with genotype 4a NS5A gene); assay: microbe, parasite or virus in culture; details: Hepatitis C virus, read-out: 4a
Procedure, shortened: (§1)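 Replicon cells stably carrying the listed RLuc-encoding dicistronic replicons were seeded and treated with DMSO serial dilutions of compound (10 mM stocks) diluted into culture medium. After 72 h, cells were lysed and Renilla luciferase activity measured. EC50 was derived by non-linear regression.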

[3] = system: HCV 3a RLuc cells (NS5A chimeric genotype 1b Con1 replicon with consensus genotype 3a NS5A gene); assay: microbe, parasite or virus in culture; details: Hepatitis C virus
Procedure, shortened: as §1

[4] = system: HCV 1b RLuc cells (dicistronic genotype 1b Con1 replicon, RLuc reporter); assay: microbe, parasite or virus in culture; details: Hepatitis C virus, read-out: 1b (nM)
Procedure, shortened: (§2)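 Replicons used: genotype 1b Con1, 1a H77, 2a JFH-1, and a 2a JFH-1 chimera with J6-strain NS5A (M31 present), all dicistronic.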

[5] = system: HCV 1a RLuc cells (dicistronic genotype 1a H77 replicon, RLuc reporter); assay: microbe, parasite or virus in culture; details: Hepatitis C virus, read-out: 1a
Procedure, shortened: as §2

[6] = system: HCV 2a JFH-1 Rluc cells (dicistronic genotype 2a JFH-1 replicon, RLuc reporter); assay: microbe, parasite or virus in culture; details: Hepatitis C virus, genotype 2a JFH-1 replicon, read-out: 2a JFH
Procedure, shortened: as §2

[7] = read-out: 3a, Table 2, genotype 3a NS5A chimeric replicon
[8] = 72 h, Table 2, genotype 1a H77 replicon, 72 hours
[9] = read-out: 3a, genotype 3a replicon

SMILES | EC50 [1] | EC50 [2] | EC50 ([3]; read-out: 3a, Table 1, genotype 3a NS5A chimeric replicon) | EC50 ([4]; 72 h) | EC50 ([5]; 72 h, Table 1, genotype 1a H77 replicon, 72 hours) | EC50 ([6]; 72 h, Table 1, 72 hours) | EC50 [3, 7] | EC50 [5, 8] | EC50 ([6]; 72 h, Table 2, 72 hours) | EC50 [3, 9] | EC50 [4] | EC50 ([5]; genotype 1a replicon) | EC50 [6]
COC(=O)N[C@H](C(=O)N1CCC[C@H]1c1ncc(-c2cc3c4c(c2)OCc2cc(-c5cnc([C@@H]6CCCN6C(=O)[C@@H](NC(=O)OC)C6CCOCC6)[nH]5)cc(c2-4)OC3)[nH]1)C(C)C [Example 25b] | 1 to 44 nM | 0.001 to 0.99 nM | 0.001 to 0.99 nM | 0.176 nM | 0.001 to 0.999 nM | 0.001 to 0.999 nM |  |  |  |  |  |  | 
COC(=O)N[C@H](C(=O)N1CCC[C@H]1c1nc2ccc3cc(-c4ccc(-c5cnc([C@@H]6[C@H]7CC[C@H](C7)N6C(=O)[C@@H](NC(=O)OC)C(C)C)[nH]5)cc4)ccc3c2[nH]1)C(C)C [Example 53] | > 44 nM | 0.001 to 0.99 nM |  | 0.01 nM |  |  | 0.001 to 0.99 nM | 0.001 to 0.999 nM | 0.001 to 0.999 nM |  |  |  | 
COC(=O)N[C@H](C(=O)N1CCC[C@H]1c1nc2ccc3cc(-c4ccc(-c5cnc([C@@H]6[C@H]7CC[C@H](C7)N6C(=O)[C@H](NC(=O)OC)c6ccccc6)[nH]5)cc4)ccc3c2[nH]1)C(C)C [Example 54] | > 44 nM | 0.001 to 0.99 nM |  | 0.014 nM |  |  | 0.001 to 0.99 nM | 0.001 to 0.999 nM | 0.001 to 0.999 nM |  |  |  | 
COC(=O)N[C@H](C(=O)N1CCC[C@H]1c1nc2ccc3cc(-c4ccc(-c5cnc([C@@H]6[C@H]7CC[C@H](C7)N6C(=O)[C@@H](NC(=O)OC)[C@@H](C)OC)[nH]5)cc4)ccc3c2[nH]1)C(C)C [Example 55] | > 44 nM | 0.001 to 0.99 nM |  | 0.015 nM |  |  | 0.001 to 0.99 nM | 0.001 to 0.999 nM | 0.001 to 0.999 nM |  |  |  | 
COC(=O)NC(C(=O)N1CCC[C@H]1c1ncc(-c2ccc(-c3ccc4c(ccc5nc([C@@H]6[C@H]7CC[C@H](C7)N6C(=O)[C@@H](NC(=O)OC)C(C)C)[nH]c54)c3)cc2)[nH]1)C(C)C (stereo partly shown) [Example 65] | > 44 nM | 0.001 to 0.99 nM |  | 0.015 nM |  |  | 0.001 to 0.99 nM | 0.001 to 0.999 nM | 0.001 to 0.999 nM |  |  |  | 
COC(=O)NC(C(=O)N1CCC[C@H]1c1ncc(-c2ccc(-c3ccc4c(ccc5nc([C@@H]6[C@H]7CC[C@H](C7)N6C(=O)[C@@H](NC(=O)OC)[C@@H](C)OC)[nH]c54)c3)cc2)[nH]1)C(C)C (stereo partly shown) [Example 66] | > 44 nM | 0.001 to 0.99 nM |  | 0.022 nM |  |  | 0.001 to 0.99 nM | 0.001 to 0.999 nM | 0.001 to 0.999 nM |  |  |  | 
COC(=O)NC(C(=O)N1CCC[C@H]1c1ncc(-c2ccc(-c3ccc4c(ccc5nc([C@@H]6[C@H]7CC[C@H](C7)N6C(=O)[C@@H](NC(=O)OC)C(C)C)[nH]c54)c3)cc2)[nH]1)[C@@H](C)OC (stereo partly shown) [Example 68] | 1 to 44 nM | 0.001 to 0.99 nM |  | 0.025 nM |  |  | 0.001 to 0.99 nM | 0.001 to 0.999 nM | 0.001 to 0.999 nM |  |  |  | 
COC(=O)N[C@H](C(=O)N1CCC[C@H]1c1nc2ccc3cc(-c4ccc(-c5cnc([C@@H]6CC7(CN6C(=O)[C@H](C(C)C)C(C)C(=O)OC)OCCO7)[nH]5)cc4)ccc3c2[nH]1)[C@@H](C)OC (stereo partly shown) [Example 80] | > 44 nM | 0.001 to 0.99 nM |  | 0.072 nM |  |  | 0.001 to 0.99 nM | 0.001 to 0.999 nM | 0.001 to 0.999 nM |  |  |  | 
COC(=O)N[C@H](C(=O)N1CCC[C@H]1c1nc2ccc3cc(-c4ccc5c(c4)CCc4nc([C@@H]6CC7(CN6C(=O)[C@@H](NC(=O)OC)[C@@H](C)OC)OCCO7)[nH]c4-5)ccc3c2[nH]1)C(C)C [Example 83] | > 44 nM | 0.001 to 0.99 nM |  | 0.094 nM |  |  | 1 to 4.99 nM | 0.001 to 0.999 nM | 0.001 to 0.999 nM |  |  |  | 
COC(=O)N[C@H](C(=O)N1[C@@H]2CC[C@@H](C2)[C@H]1c1ncc(-c2ccc(-c3ccc4c(ccc5nc([C@@H]6C[C@H]7C[C@H]7N6C(=O)[C@@H](NC(=O)OC)C(C)C)[nH]c54)c3)cc2)[nH]1)C(C)C [Example 98] | > 44 nM | 0.001 to 0.99 nM |  | 0.01 nM |  |  | 1 to 4.99 nM | 0.001 to 0.999 nM | 0.001 to 0.999 nM |  |  |  | 
COC(=O)N[C@H](C(=O)N1CCC[C@H]1c1nc2ccc3cc(-c4ccc(-c5cnc([C@@H]6[C@H]7CC[C@H](C7)N6C(=O)[C@H](NC(=O)OC)c6ccccc6)[nH]5)c(F)c4)ccc3c2[nH]1)C(C)C [Example 306] | > 44 nM | 0.001 to 0.99 nM |  |  |  |  |  |  |  | 0.001 to 0.99 nM | 0.011 nM | 0.001 to 0.999 nM | 0.001 to 0.999 nM
COC(=O)N[C@H](C(=O)N1[C@@H]2CC[C@@H](C2)[C@H]1c1ncc(-c2ccc(-c3ccc4c(ccc5nc([C@@H]6CCCN6C(=O)[C@H](NC(=O)OC)c6ccccc6)[nH]c54)c3)cc2)[nH]1)C(C)C [Example 315] | 1 to 44 nM | 0.001 to 0.99 nM |  |  |  |  |  |  |  | 0.001 to 0.99 nM | 0.023 nM | 0.001 to 0.999 nM | 0.001 to 0.999 nM
COC(=O)N[C@H](C(=O)N1CCC[C@H]1c1ncc(-c2cc3c4c(c2)COc2cc(-c5cnc([C@@H]6CCCN6C(=O)[C@@H](NC(=O)OC)C(C)C)[nH]5)cc(c2-4)OC3)[nH]1)C(C)C [Example 319] | 0.001 to 0.999 nM | 0.001 to 0.99 nM |  |  |  |  |  |  |  | 0.001 to 0.99 nM | 0.021 nM | 0.001 to 0.999 nM | 0.001 to 0.999 nM
COC(=O)N[C@H](C(=O)N1[C@@H]2CC[C@@H](C2)[C@H]1c1nc2ccc3cc(-c4ccc5c(ccc6nc([C@@H]7CCCN7C(=O)[C@H](NC(=O)OC)c7ccccc7)[nH]c65)c4)ccc3c2[nH]1)C1CCOCC1 [Example 345] | 0.001 to 0.999 nM | 0.001 to 0.99 nM |  |  |  |  |  |  |  | 0.001 to 0.99 nM | 0.066 nM | 0.001 to 0.999 nM | 0.001 to 0.999 nM
COC(=O)N[C@H](C(=O)N1CCC[C@H]1c1ncc(-c2cc3c4c(c2)OCc2cc(-c5cnc([C@@H]6CCCN6C(=O)[C@@H](NC(=O)OC)C6CCCC6)[nH]5)cc(c2-4)OC3)[nH]1)C1CCCC1 [Example 377] |  | 0.001 to 0.99 nM |  |  |  |  |  |  |  | 0.001 to 0.99 nM | 0.022 nM | 0.001 to 0.999 nM | 0.001 to 0.999 nM
COC(=O)N[C@H](C(=O)N1[C@@H]2CC[C@@H](C2)[C@H]1c1ncc(-c2ccc(-c3ccc4c(ccc5nc([C@@H]6C[C@H]7C[C@H]7N6C(=O)[C@@H](NC(=O)OC)C6CCOCC6)[nH]c54)c3)cc2)[nH]1)C(C)C [Example 378] |  | 0.001 to 0.99 nM |  |  |  |  |  |  |  | 0.001 to 0.99 nM | 0.036 nM | 0.001 to 0.999 nM | 0.001 to 0.999 nM
COC(=O)N[C@H](C(=O)N1CCC[C@H]1c1nc(Cl)c(-c2ccc(-c3ccc4cc(-c5[nH]c([C@@H]6CCCN6C(=O)[C@@H](NC(=O)OC)C(C)C)nc5Cl)ccc4c3)cc2)[nH]1)C(C)C [Example 380] |  | 0.001 to 0.99 nM |  |  |  |  |  |  |  | > 5 nM | 0.006 nM | 0.001 to 0.999 nM | 0.001 to 0.999 nM
COC(=O)N[C@H](C(=O)N1CC2(CC2)C[C@H]1c1nc(-c2ccc3c(c2)C(F)(F)c2cc(-c4ccc5nc([C@@H]6[C@H]7CC[C@H](C7)N6C(=O)[C@@H](NC(=O)OC)C(C)C)[nH]c5c4)ccc2-3)c(Cl)[nH]1)C(C)C [Example 382] |  | 0.001 to 0.99 nM |  |  |  |  |  |  |  | > 5 nM | 0.006 nM | 0.001 to 0.999 nM | > 44 nM
COC(=O)N[C@H](C(=O)N1CCC[C@H]1c1nc2ccc3cc(-c4ccc(-c5[nH]c([C@@H]6C[C@H]7C[C@H]7N6C(=O)[C@@H](NC(=O)OC)C(C)C)nc5Cl)cc4)ccc3c2[nH]1)C(C)C [Example 383] |  | 0.001 to 0.99 nM |  |  |  |  |  |  |  | 0.001 to 0.99 nM | 0.008 nM | 0.001 to 0.999 nM | 0.001 to 0.999 nM
